Reference: patent publication US4460781A, “4-(2-Benzoylphenyl-1-pyazole and 4-(2-benzoylphenyl)-1-pyrazoline derivatives” (Hoffmann-La Roche Inc., priority 1983, dated 1984)

Tests used:
male mice = assay: Inclined Screen (paralyzing effects, sliding off the screen); format: in vivo; details: Mus musculus, groups of 6, at least 4 hours, maximum dose of 500 mg/kg, read-out: Inclined Screen (PD50)
Protocol: Groups of 6 male mice are given the test drug (maximum dose of 500 mg/kg) and then are left on the inclined screen at least 4 hours for observation of paralyzing effects severe enough to cause them to slide off the screen. If activity is observed, additional doses are taken until at least two are reached at which some, but not all of the animals slide off the screen. Doses at which mice fall off the screen due to toxicity or excitation are not included in the calculation of PD50.

Cats = assay: Unanesthetized Cat (minimum symptoms, usually ataxia); format: in vivo; details: Felis catus, po, cats treated orally
Protocol: Cats are treated orally and observed for minimum symptoms--usually ataxia. One cat is used at a dose of 50 mg/kg. If activity is present, up to three cats/dose are used. Results are given as minimum effective dose.

Toxicity (LD50) (PO) = details: in vivo
mice = assay: Footshock (blocking of shock-elicited fighting in pairs of mice); format: in vivo; details: Mus musculus, pretreated 1 hour, 3 out of 3 pairs blocked from fighting, maximum of 100 mg/kg, read-out: Footshock (100% blocking dose)
Protocol: A pair of mice is confined under a one liter beaker placed on a grid which presents shock to the feet. At least 5 fighting episodes are elicited in a two-minute period. Pairs of mice are marked and pretreated 1 hour to a second shocking. Logarithmic dose intervals are utilized up to a maximum of 100 mg/kg. At the 100% blocking dose, 3 out of 3 pairs must be blocked from fighting.

Compound | ED50 (male mice) [mg/kg] | minimal effective dose (Cats) [mg/kg] | LD50 (Toxicity (LD50) (PO)) [mg/kg] | ED100 (mice) [mg/kg]
Cc1[nH]nc2c1-c1ccc([N+](=O)[O-])cc1C(c1ccccc1Cl)=NC2 [6-(2-Chlorophenyl)-3-methyl-8-nitro-2H,4H-pyrazolo[3,4-d][2]benzazepine] | 400 | 250 | > 1000 | –
OCCn1cc2c(n1)CN=C(c1ccccc1)c1cc(Cl)ccc1-2 [8-Chloro-2-(2-hydroxyethyl)-6-phenyl-2H,4H-pyrazolo[3,4-d][2]benzazepine] | 40 | 20 | 750 | 100
Clc1ccc2c(c1)C(c1ccccc1Cl)=NCc1n[nH]cc1-2 [8-Chloro-6-(2-chlorophenyl)-2H,4H-pyrazolo[3,4-d][2]benzazepine] | 143 | 10 | 800 | 25
Fc1ccccc1C1=NCc2n[nH]cc2-c2ccc(Cl)cc21 [8-Chloro-6-(2-fluorophenyl)-2H,4H-pyrazolo[3,4-d][2]benzazepine] | 66 | 2 | 760 | 25
CNC(=O)n1cc2c(n1)CN=C(c1ccccc1)c1cc(Cl)ccc1-2 [8-Chloro-N-methyl-6-phenyl-2H,4H-pyrazolo[3,4-d][2]benzazepine-2-carboxamide] | 400 | 20 | – | 25
